# According to publication PMC10216341 (Brain Sciences, 2023):
# Where two headings read alike, the source gives them in different places.
# Legend:
# SH-SY5Y cells [1] = experiment: MTT cell viability assay; format: cell-based, human; conditions: read-out: MTT IC50
# Description: (§1) SH-SY5Y cells were differentiated as described by Encinas et al. (2000) after seeding onto either poly-D-Lysine hydrobromide (PDL) (50 µg/mL) (P6407, Sigma-Aldrich, Poole, UK) -coated cell cultureware or in 96-well microtitre plates (6005649, Perkin Elmer, Groningen, The Netherlands) with 10% FBS media and after settling, cells were grown to 60% confluency.
# In brief, 3 × 10^4 cells/well were grown in laminin-coated 96-well clear-bottom tissue culture plates. Undifferentiated cells were challenged with each agent for 24 h within the concentration ranges specified by diluting each compound in the cell culture medium. Differentiated cells that were grown on 96-well plates were treated with each compound diluted in cell culture medium. After incubation with the compounds, spent media was removed and then replaced with the corresponding media for differentiated or undifferentiated cells containing 10% of 5 mg/mL MTT and incubated for 4 h. Wells that only received 10% MTT and respective growth media served as background controls. The formazan crystals generated were suspended in 1:1 DMSO and isopropanol solution and the absorbance of wells read at 570 nm using a spectrophotometer (Multiskan Spectrum, Thermo Electron Corporation, Vantaa, Finland). Experiments were performed in triplicates from which an average was taken, and blank (negative control) values were subtracted. Cell viability was expressed as a percentage of survival […] from at least five repeated experiments. The concentration of agent producing a 50% inhibition of cell viability (IC50 values) was obtained from the concentration-response curves and expressed as means ± standard error of the mean (SEM).
# [2] = test system: differentiated SH-SY5Y cells; experiment: Neurite extension (neurite length) in differentiated cells, microscopy; format: cell-based, human; conditions: 24 h, read-out: Neurite Retraction IC50
# Description: SH-SY5Y cells were seeded at 5 × 10^5 cells/well in 12-well poly-D-Lysine coated plates and grown for 24 h to ensure cell adhesion. Cells were then treated with pesticides in differentiation media for 24 h. Cell images were captured using a phase contrast microscope (Olympus, DP70, London, UK). Cells were considered differentiated if each neuronal cell contained at least one process that was longer than its cell body. The neurite length from 100 randomly chosen cells were measured in five selected regions of each well using the neurite tracer tool in Image J (Image J 1.49k, National Institute of Health, Bethesda, MD, USA). Results are expressed as mean percentage neurite length (±SEM) relative to vehicle-control treated cells.
# SH-SY5Y cells [3] = experiment: Intracellular ATP levels, luminescence assay; format: cell-based, human
# Description: as §1
# Undifferentiated and differentiated cells that were grown in 6-well plates were treated with MTT cell viability inhibition concentrations that produced 10, 20, 50, and an 80% loss of cell viability. Intracellular ATP levels were quantified using an ATP luminescence assay kit (ATP Bioluminescence Assay Kit CLS II (product 11 699 695 001, Roche, Germany), according to the manufacturer’s protocol. ATP standards were prepared according to the kit protocol across a concentration range of 1 × 10^−4 to 1 × 10^−10 M and after the addition of luciferase reagent to each well, the luminescence was measured using a luminometric plate reader (Thermo Fisher Scientific, Fluoroskan Ascent FC, Vantaa, Finland) using an integration time of 1 s. The ATP content in control and pesticide-treated samples were interpolated from the ATP standard curve. Experiments were performed in triplicates and five individual experiments were undertaken from which a mean was calculated, with blank values subtracted.
# SH-SY5Y cells [4] = experiment: Lactate dehydrogenase (LDH) assay, extracellular LDH; format: cell-based, human
# Description: as §1
# The production of active extracellular LDH in response to pesticide exposures was measured using an LDH assay kit (ab65393, Abcam, Cambridge, UK) according to the manufacturer’s instructions. After agent treatment (1–200 µM, or vehicle control), 50 µL of spent media was removed and LDH activity was measured spectrophotometrically at 450 nm (Multiskan Spectrum, Thermo Electron Corporation, Finland). Assays were performed in triplicates, with blank values from a negative control subtracted from test values. IC50 values were obtained from the concentration-response curves and expressed as means ± standard error of the mean (SEM). Experiments were performed with an n-number of at least five.
# [5] = target: T1, acetylcholinesterase (AChE) (Homo sapiens, UniProt P22303); experiment: cell-based; conditions: 24 h
# T1 construct: endogenous in cells; host or cells: SH-SY5Y human neuroblastoma cells (ECACC-94030304), undifferentiated and differentiated
# Description: Inhibition of AChE was assessed using an Ellman’s assay modified for harvested cells [32, 33]. […] The supernatant was discarded, and the resultant cell pellet was retained and resuspended in 1 mL of potassium phosphate buffer pH 8.0. A volume of 100 µL was then assayed as a 1:1 mixture with ATCI and DTNB. […] Since the absorbance background increased with time, the associated absorbance of buffer blanks was subtracted at each time point for each data point. Corrected absorbance readings for each treatment were normalized to the means of the vehicle control and AChE activity presented as a percentage relative to the vehicle control.
# rat = conditions: cited from earlier work
# [6] = WHO class; cited from earlier work
# [7] = Homo sapiens, differentiated SH-SY5Y cells
# T1 sequence (P22303 32-614): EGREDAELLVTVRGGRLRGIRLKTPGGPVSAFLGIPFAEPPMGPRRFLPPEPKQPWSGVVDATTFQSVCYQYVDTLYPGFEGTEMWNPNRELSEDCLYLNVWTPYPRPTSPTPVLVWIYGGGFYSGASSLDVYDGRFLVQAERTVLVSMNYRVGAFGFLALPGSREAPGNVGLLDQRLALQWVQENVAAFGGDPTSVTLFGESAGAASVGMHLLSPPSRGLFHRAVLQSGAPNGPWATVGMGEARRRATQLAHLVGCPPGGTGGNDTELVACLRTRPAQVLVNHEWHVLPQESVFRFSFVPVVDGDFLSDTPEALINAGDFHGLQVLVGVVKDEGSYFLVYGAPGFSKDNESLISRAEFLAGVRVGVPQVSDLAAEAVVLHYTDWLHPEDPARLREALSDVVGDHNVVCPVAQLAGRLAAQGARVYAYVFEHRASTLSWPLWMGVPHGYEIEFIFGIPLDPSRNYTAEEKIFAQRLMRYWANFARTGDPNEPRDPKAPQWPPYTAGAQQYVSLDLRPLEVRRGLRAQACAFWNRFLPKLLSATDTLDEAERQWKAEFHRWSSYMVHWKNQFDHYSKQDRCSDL
smiles,measurement,setting,value
"CCOP(=O)(OCC)Oc1nc(Cl)c(Cl)cc1Cl [CPO, diethyl (3,5,6-trichloropyridin-2-yl) phosphate]",IC50,SH-SY5Y cells [1]; differentiated SH-SY5Y cells,17.3 ± 0.9 µM
same,IC50,"SH-SY5Y cells [1]; undifferentiated SH-SY5Y cells, 24 h exposure",29.4 ± 2.1 µM
same,IC50,[2]; differentiated SH-SY5Y cells,10.8 ± 0.1 µM
same,IC50,"SH-SY5Y cells [3]; differentiated SH-SY5Y cells, read-out: ATP IC50",18.8 ± 0.1 µM
same,IC50,"SH-SY5Y cells [3]; undifferentiated SH-SY5Y cells, read-out: ATP IC50",29.6 ± 2.1 µM
same,IC50,"SH-SY5Y cells [4]; differentiated SH-SY5Y cells, 24 h exposure, read-out: LDH IC50",17.2 ± 1.1 µM
same,IC50,"SH-SY5Y cells [4]; undifferentiated SH-SY5Y cells, 24 h exposure, read-out: LDH IC50",27.8 ± 2.1 µM
"COP(=O)(OC)SCn1c(=O)oc2cc(Cl)cnc21 [AZO, 6-chloro-3-(dimethoxyphosphorylsulfanylmethyl)-[1,3]oxazolo[4,5-b]pyridin-2-one]",IC50,"[5]; AChE Inhibition IC50, differentiated SH-SY5Y cells",0.22 µM
same,IC50,"[5]; AChE Inhibition IC50, undifferentiated SH-SY5Y cells",0.3 µM
same,IC50,"SH-SY5Y cells [1]; Homo sapiens, SH-SY5Y, 24 h",26.9 ± 1.1 µM
same,IC50,"SH-SY5Y cells [1]; Homo sapiens, SH-SY5Y",19.6 ± 0.5 µM
same,rat oral LD50,rat,1180 mg/kg
same,hazard classification,[6],Class II
same,IC50,"[2]; Homo sapiens, SH-SY5Y",16.5 ± 1.3 µM
same,IC50,"SH-SY5Y cells [3]; Homo sapiens, SH-SY5Y, read-out: ATP IC50, differentiated SH-SY5Y cells",20.7 ± 0.1 µM
same,IC50,"SH-SY5Y cells [3]; Homo sapiens, SH-SY5Y, read-out: ATP IC50, undifferentiated SH-SY5Y cells",26 ± 0.6 µM
same,IC50,"SH-SY5Y cells [4]; Homo sapiens, SH-SY5Y, 24 h, read-out: LDH IC50, differentiated SH-SY5Y cells, 24 h exposure",20.5 ± 1.6 µM
same,IC50,"SH-SY5Y cells [4]; Homo sapiens, SH-SY5Y, 24 h, read-out: LDH IC50, undifferentiated SH-SY5Y cells, 24 h exposure",26.5 ± 0.9 µM
"CNC(=O)O/N=C/C(C)(C)SC [Aldicarb, [(E)-(2-methyl-2-methylsulfanylpropylidene)amino] N-methylcarbamate]",IC50,SH-SY5Y cells [1]; [7],31.6 ± 2.2 µM
same,IC50,"SH-SY5Y cells [1]; Homo sapiens, undifferentiated SH-SY5Y cells, 24 h exposure",39.6 ± 3.6 µM
same,rat oral LD50,rat,0.65 mg/kg
same,hazard classification,[6],Class Ia
same,IC50,[2]; [7],30.2 ± 4.7 µM
same,IC50,"SH-SY5Y cells [3]; Homo sapiens, SH-SY5Y, differentiated SH-SY5Y cells, read-out: ATP IC50",32.4 ± 1.2 µM
same,IC50,"SH-SY5Y cells [3]; Homo sapiens, SH-SY5Y, undifferentiated SH-SY5Y cells, read-out: ATP IC50",40.2 ± 2.9 µM
same,IC50,"SH-SY5Y cells [4]; Homo sapiens, SH-SY5Y, 24 h, differentiated SH-SY5Y cells, 24 h exposure, read-out: LDH IC50",29.9 ± 1.6 µM
same,IC50,"SH-SY5Y cells [4]; Homo sapiens, SH-SY5Y, 24 h, undifferentiated SH-SY5Y cells, 24 h exposure, read-out: LDH IC50",35.4 ± 1.4 µM
"CCOP(=S)(OCC)Oc1nc(Cl)c(Cl)cc1Cl [chlorpyrifos, Chlorpyrifos]",rat oral LD50,rat,82 mg/kg
